# Reference: patent publication US6531160B2, “Microcapsules with an aqueous core containing at least one water-soluble cosmetic or dermatological active principle and cosmetic or dermatological compositions containing them” (L′Oreal, priority 2000, dated 2003)
# Experiment: Loss of active agent after storage for 2 months at 45° C. (microcapsule suspension vs control aqueous solution)
# Type: physicochemical
# Conditions: control aqueous solution of the active agent, same weight concentration
# Description: (§1) The microcapsule suspension thus obtained is stored for 2 months at a temperature of 45° C. After this storage period, the loss of cytochrome C from the suspension and that of a control aqueous solution of cytochrome C having the same weight concentration of 0.25% and which has been stored under the same conditions, are measured.
# as §1, with “chlorophylline” for “cytochrome C”, “0.1%,” for “0.25%”
# as §1, with “ascorbic acid” for “cytochrome C”, “5% and also a pH of 6,” for “0.25%”
row,"Loss of active agent after storage for 2 months at 45° C., non-encapsulated control [%]",Molecule
1,40,O=C1O[C@H]([C@@H](O)CO)C(O)=C1O [ascorbic acid]
2,60,chlorophylline

row,Molecule,"Loss of active agent after storage for 2 months at 45° C., non-encapsulated control [%]"
1,cytochrome C,60
